Assay: solubility in organic solvents and in water
Assay type: physicochemical
Conditions: in various organic solvents and in water; compared with nintedanib ethanesulphonate hemihydrate form known from WO 2004/013099

In the case of `COC(=O)c1ccc2c(c1)NC(=O)/C2=C(\Nc1ccc(N(C)C(=O)CN2CCN(C)CC2)cc1)c1ccccc1` [methyl-(3Z)-3-{[(4-{methyl[(4-methylpiperazin-1-yl)acetyl]amino}phenyl)amino](phenyl)methylidene}-2-oxo-2,3-dihydro-1H-indole-6-carboxylate], the solubility is reported as “better solubility in various organic solvents and in water”.
